Patent publication US10196386B2, “Compounds having muscarinic receptor antagonist and beta2 adrenergic receptor agonist activity” (priority 2016, dated 2019)

Tests used:
[1] = molecular target: T1, Human M3 receptor (Homo sapiens, UniProt P20309); test: biochemical; format: binding; details: read-out: M3 Range
T1 construct: purchased Perkin Elmer

[2] = molecular target: T2, Human β2 adrenoceptor (Homo sapiens, UniProt P07550); test: β2 adrenoceptor radioligand binding assay
T2 construct: purchased Perkin Elmer
How it was run: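 Human β2 receptor membranes incubated 1 h at room temperature with 0.3 nM [125I]cyanopindolol and compound in pH 7.4 HEPES buffer (0.5% DMSO); 2 μM s-propranolol defined non-specific binding. Bound label counted after filtration; IC50 from competition curves, converted to Ki via Cheng–Prusoff.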

T1 sequence (P20309 whole entry): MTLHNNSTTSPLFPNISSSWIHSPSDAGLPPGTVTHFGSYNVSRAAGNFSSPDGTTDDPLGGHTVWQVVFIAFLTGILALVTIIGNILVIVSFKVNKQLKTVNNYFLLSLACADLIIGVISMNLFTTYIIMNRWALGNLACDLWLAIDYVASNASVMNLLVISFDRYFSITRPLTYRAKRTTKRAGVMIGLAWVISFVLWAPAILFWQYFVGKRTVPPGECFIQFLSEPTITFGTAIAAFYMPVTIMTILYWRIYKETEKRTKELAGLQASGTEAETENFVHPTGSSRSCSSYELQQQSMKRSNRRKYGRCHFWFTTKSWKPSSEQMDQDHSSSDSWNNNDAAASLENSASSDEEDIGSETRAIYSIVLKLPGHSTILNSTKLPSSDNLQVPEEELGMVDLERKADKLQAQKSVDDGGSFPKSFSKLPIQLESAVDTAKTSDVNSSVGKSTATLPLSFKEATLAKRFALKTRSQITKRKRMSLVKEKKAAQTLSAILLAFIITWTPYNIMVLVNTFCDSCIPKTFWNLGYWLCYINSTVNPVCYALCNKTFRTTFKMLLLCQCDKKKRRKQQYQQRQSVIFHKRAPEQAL
T2 sequence (P07550 whole entry): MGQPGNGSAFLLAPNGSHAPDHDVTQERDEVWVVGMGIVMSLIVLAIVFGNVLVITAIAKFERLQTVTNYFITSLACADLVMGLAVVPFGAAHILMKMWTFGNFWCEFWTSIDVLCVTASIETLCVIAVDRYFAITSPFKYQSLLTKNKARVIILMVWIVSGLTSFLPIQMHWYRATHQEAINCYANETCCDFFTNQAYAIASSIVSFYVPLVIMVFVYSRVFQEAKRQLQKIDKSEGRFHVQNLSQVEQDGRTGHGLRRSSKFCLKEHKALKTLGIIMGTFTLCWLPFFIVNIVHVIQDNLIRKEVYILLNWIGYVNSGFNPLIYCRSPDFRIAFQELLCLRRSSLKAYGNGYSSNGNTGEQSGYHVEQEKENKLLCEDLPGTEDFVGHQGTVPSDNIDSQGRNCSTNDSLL

## O=C(c1ccc(CCNC[C@H](O)c2ccc(O)c3[nH]c(=O)ccc23)cc1)N1CC=C(c2cccc([C@](O)(C(=O)OCC3CCN(Cc4ccccc4)CC3)c3ccccc3)c2)C1 [Compound 3F, (1-Benzylpiperidin-4-yl)methyl (S)-2-hydroxy-2-(3-(1-(4-(2-(((R)-2-hydroxy-2-(8-hydroxy-2-oxo-1,2-dihydroquinolin-5-yl)ethyl)amino)ethyl)benzoyl)-2,5-dihydro-1H-pyrrol-3-yl)phenyl)-2-phenylacetate]
[1]
  IC50: 0.3 to 3 nM
[2]
  IC50: < 0.3 nM

## O=C(c1ccc(CNC[C@H](O)c2ccc(O)c3[nH]c(=O)ccc23)cc1)N1CC=C(c2cccc([C@](O)(C(=O)OCC3CCN(Cc4ccccc4)CC3)c3ccccc3)c2)C1 [Compound 3G, (1-Benzylpiperidin-4-yl)methyl (S)-2-hydroxy-2-(3-(1-(4-((((R)-2-hydroxy-2-(8-hydroxy-2-oxo-1,2-dihydroquinolin-5-yl)ethyl)amino)methyl)benzoyl)-2,5-dihydro-1H-pyrrol-3-yl)phenyl)-2-phenylacetate]
[1]
  IC50: 0.3 to 3 nM
[2]
  IC50: < 0.3 nM

## COc1cc(C(=O)N2CCC=C(c3cccc([C@](O)(C(=O)OCC4CCN(Cc5ccccc5)CC4)c4ccccc4)c3)C2)ccc1CNC[C@H](O)c1ccc(O)c2[nH]c(=O)ccc12 [Compound 3H, (1-Benzylpiperidin-4-yl)methyl (S)-2-hydroxy-2-(3-(1-(4-((((R)-2-hydroxy-2-(8-hydroxy-2-oxo-1,2-dihydroquinolin-5-yl)ethyl)amino)methyl)-3-methoxybenzoyl)-1,2,5,6-tetrahydropyridin-3-yl)phenyl)-2-phenylacetate]
[1]
  IC50: 0.3 to 3 nM
[2]
  IC50: < 0.3 nM

## O=C(c1ccc(CNC[C@H](O)c2ccc(O)c3[nH]c(=O)ccc23)cc1)N1CCC=C(c2cccc([C@](O)(C(=O)OCC3CCN(Cc4ccccc4)CC3)c3ccccc3)c2)C1 [Compound 3I, (1-Benzylpiperidin-4-yl)methyl (S)-2-hydroxy-2-(3-(1-(4-((((R)-2-hydroxy-2-(8-hydroxy-2-oxo-1,2-dihydroquinolin-5-yl)ethyl)amino)methyl)benzoyl)-1,2,5,6-tetrahydropyridin-3-yl)phenyl)-2-phenylacetate]
[1]
  IC50: 0.3 to 3 nM
[2]
  IC50: 0.3 to 3 nM

## COc1cc(C(=O)N2CC=C(c3cccc([C@](O)(C(=O)OCC4CCN(Cc5ccccc5)CC4)c4ccccc4)c3)C2)ccc1CNC[C@H](O)c1ccc(O)c2[nH]c(=O)ccc12 [Compound 3J, (1-Benzylpiperidin-4-yl)methyl (S)-2-hydroxy-2-(3-(1-(4-((((R)-2-hydroxy-2-(8-hydroxy-2-oxo-1,2-dihydroquinolin-5-yl)ethyl)amino)methyl)-3-methoxybenzoyl)-2,5-dihydro-1H-pyrrol-3-yl)phenyl)-2-phenylacetate]
[1]
  IC50: < 0.3 nM
[2]
  IC50: < 0.3 nM

## O=C(NCc1ncc(-c2cccc([C@](O)(C(=O)OCC3CCN(Cc4ccccc4)CC3)c3ccccc3)c2)cn1)c1ccc(CNC[C@H](O)c2ccc(O)c3[nH]c(=O)ccc23)cc1 [Compound 4, (1-Benzylpiperidin-4-yl)methyl (S)-2-hydroxy-2-(3-(2-((4-((((R)-2-hydroxy-2-(8-hydroxy-2-oxo-1,2-dihydroquinolin-5-yl)ethyl)amino)methyl)benzamido)-methyl)pyrimidin-5-yl)phenyl)-2-phenylacetate]
[1]
  IC50: 0.3 to 3 nM
[2]
  IC50: 0.3 to 3 nM

## COc1cc(C(=O)NCc2ccnc(-c3cccc([C@](O)(C(=O)OCC4CCN(Cc5ccccc5)CC4)c4ccccc4)c3)n2)ccc1CNC[C@H](O)c1ccc(O)c2[nH]c(=O)ccc12 [Compound 4A, (1-Benzylpiperidin-4-yl)methyl (S)-2-hydroxy-2-(3-(4-((4-((((R)-2-hydroxy-2-(8-hydroxy-2-oxo-1,2-dihydroquinolin-5-yl)ethyl)amino)methyl)-3-methoxybenzamido)methyl)pyrimidin-2-yl)phenyl)-2-phenylacetate]
[1]
  IC50: 0.3 to 3 nM
[2]
  IC50: < 0.3 nM

## O=C(NCc1cnc(-c2cccc([C@](O)(C(=O)OCC3CCN(Cc4ccccc4)CC3)c3ccccc3)c2)cn1)c1ccc(CNC[C@H](O)c2ccc(O)c3[nH]c(=O)ccc23)cc1 [Compound 4B, (1-Benzylpiperidin-4-yl)methyl (S)-2-hydroxy-2-(3-(5-((4-((((R)-2-hydroxy-2-(8-hydroxy-2-oxo-1,2-dihydroquinolin-5-yl)ethyl)amino)methyl)-benzamido)methyl)pyrazin-2-yl)phenyl)-2-phenylacetate]
[1]
  IC50: < 0.3 nM
[2]
  IC50: 0.3 to 3 nM

## COc1cc(C(=O)NCc2ccc(-c3cccc([C@](O)(C(=O)OCC4CCN(Cc5ccccc5)CC4)c4ccccc4)c3)nn2)ccc1CNC[C@H](O)c1ccc(O)c2[nH]c(=O)ccc12 [Compound 4C, (1-Benzylpiperidin-4-yl)methyl (S)-2-hydroxy-2-(3-(6-((4-((((R)-2-hydroxy-2-(8-hydroxy-2-oxo-1,2-dihydroquinolin-5-yl)ethyl)amino)methyl)-3-methoxybenzamido)methyl)pyridazin-3-yl)phenyl)-2-phenylacetate]
[1]
  IC50: < 0.3 nM
[2]
  IC50: < 0.3 nM

## O=C(NCc1ccnc(-c2cccc([C@](O)(C(=O)OCC3CCN(Cc4ccccc4)CC3)c3ccccc3)c2)n1)c1ccc(CNC[C@H](O)c2ccc(O)c3[nH]c(=O)ccc23)cc1 [Compound 4D, (1-Benzylpiperidin-4-yl)methyl (S)-2-hydroxy-2-(3-(4-((4-((((R)-2-hydroxy-2-(8-hydroxy-2-oxo-1,2-dihydroquinolin-5-yl)ethyl)amino)methyl)-benzamido)methyl)pyrimidin-2-yl)phenyl)-2-phenylacetate]
[1]
  IC50: 0.3 to 3 nM
[2]
  IC50: 0.3 to 3 nM

## COc1cc(C(=O)NCc2ncc(-c3cccc([C@](O)(C(=O)OCC4CCN(Cc5ccccc5)CC4)c4ccccc4)c3)cn2)ccc1CNC[C@H](O)c1ccc(O)c2[nH]c(=O)ccc12 [Compound 4E, (1-Benzylpiperidin-4-yl)methyl (S)-2-hydroxy-2-(3-(2-((4-((((R)-2-hydroxy-2-(8-hydroxy-2-oxo-1,2-dihydroquinolin-5-yl)ethyl)amino)methyl)-3-methoxybenzamido)methyl)pyrimidin-5-yl)phenyl)-2-phenylacetate]
[1]
  IC50: 0.3 to 3 nM
[2]
  IC50: 0.3 to 3 nM

## COc1cc(C(=O)NCc2nn(C)cc2-c2cccc([C@](O)(C(=O)OCC3CCN(Cc4ccccc4)CC3)c3ccccc3)c2)ccc1CNC[C@H](O)c1ccc(O)c2[nH]c(=O)ccc12 [Compound 4F, (1-Benzylpiperidin-4-yl)methyl (S)-2-hydroxy-2-(3-(3-((4-((((R)-2-hydroxy-2-(8-hydroxy-2-oxo-1,2-dihydroquinolin-5-yl)ethyl)amino)methyl)-3-methoxybenzamido)methyl)-1-methyl-1H-pyrazol-4-yl)phenyl)-2-phenylacetate]
[1]
  IC50: 0.3 to 3 nM
[2]
  IC50: 0.3 to 3 nM

## COc1cc(C(=O)NCc2cncc(-c3cccc([C@](O)(C(=O)OCC4CCN(Cc5ccccc5)CC4)c4ccccc4)c3)n2)ccc1CNC[C@H](O)c1ccc(O)c2[nH]c(=O)ccc12 [Compound 4G, (1-Benzylpiperidin-4-yl)methyl (S)-2-hydroxy-2-(3-(6-((4-((((R)-2-hydroxy-2-(8-hydroxy-2-oxo-1,2-dihydroquinolin-5-yl)ethyl)amino)methyl)-3-methoxybenzamido)methyl)pyrazin-2-yl)phenyl)-2-phenylacetate]
[1]
  IC50: 0.3 to 3 nM
[2]
  IC50: < 0.3 nM

## COc1cc(C(=O)NCc2cnc(-c3cccc([C@](O)(C(=O)OCC4CCN(Cc5ccccc5)CC4)c4ccccc4)c3)cn2)ccc1CNC[C@H](O)c1ccc(O)c2[nH]c(=O)ccc12 [Compound 4H, (1-Benzylpiperidin-4-yl)methyl (S)-2-hydroxy-2-(3-(5-((4-((((R)-2-hydroxy-2-(8-hydroxy-2-oxo-1,2-dihydroquinolin-5-yl)ethyl)amino)methyl)-3-methoxybenzamido)methyl)pyrazin-2-yl)phenyl)-2-phenylacetate]
[1]
  IC50: 0.3 to 3 nM
[2]
  IC50: < 0.3 nM

## O=C(NCc1cc(-c2cccc([C@](O)(C(=O)OCC3CCN(Cc4ccccc4)CC3)c3ccccc3)c2)cs1)c1ccc(CNC[C@H](O)c2ccc(O)c3[nH]c(=O)ccc23)cc1 [Compound 5, (1-Benzylpiperidin-4-yl)methyl (S)-2-hydroxy-2-(3-(5-((4-((((R)-2-hydroxy-2-(8-hydroxy-2-oxo-1,2-dihydroquinolin-5-yl)ethyl)amino)methyl)benzamido)methyl)-thiophen-3-yl)phenyl)-2-phenylacetate]
[1]
  IC50: 0.3 to 3 nM
[2]
  IC50: < 0.3 nM

## O=C(NCc1csc(-c2cccc([C@](O)(C(=O)OCC3CCN(Cc4ccccc4)CC3)c3ccccc3)c2)c1)c1ccc(CNC[C@H](O)c2ccc(O)c3[nH]c(=O)ccc23)cc1 [Compound 5A, (1-Benzylpiperidin-4-yl)methyl (S)-2-hydroxy-2-(3-(4-((4-((((R)-2-hydroxy-2-(8-hydroxy-2-oxo-1,2-dihydroquinolin-5-yl)ethyl)amino)methyl)-benzamido)methyl)thiophen-2-yl)phenyl)-2-phenylacetate]
[1]
  IC50: 0.3 to 3 nM
[2]
  IC50: < 0.3 nM

## O=C(NCc1cnc(-c2cccc([C@](O)(C(=O)OCC3CCN(Cc4ccccc4)CC3)c3ccccc3)c2)s1)c1ccc(CNC[C@H](O)c2ccc(O)c3[nH]c(=O)ccc23)cc1 [Compound 5B, (1-Benzylpiperidin-4-yl)methyl (S)-2-hydroxy-2-(3-(5-((4-((((R)-2-hydroxy-2-(8-hydroxy-2-oxo-1,2-dihydroquinolin-5-yl)ethyl)amino)methyl)-benzamido)methyl)thiazol-2-yl)phenyl)-2-phenylacetate]
[1]
  IC50: 0.3 to 3 nM
[2]
  IC50: < 0.3 nM

## O=C(c1ccc(CNC[C@H](O)c2ccc(O)c3[nH]c(=O)ccc23)cc1)N1CCc2sc(-c3cccc([C@](O)(C(=O)OCC4CCN(Cc5ccccc5)CC4)c4ccccc4)c3)cc2C1 [Compound 5C, (1-Benzylpiperidin-4-yl)methyl (S)-2-hydroxy-2-(3-(5-(4-((((R)-2-hydroxy-2-(8-hydroxy-2-oxo-1,2-dihydroquinolin-5-yl)ethyl)amino)methyl)benzoyl)-4,5,6,7-tetrahydrothieno[3,2-c]pyridin-2-yl)phenyl)-2-phenylacetate]
[1]
  IC50: 0.3 to 3 nM
[2]
  IC50: < 0.3 nM
